Reference: US20110092476A1, “Bicycloheteroaryl compounds as P2X7 modulators and uses thereof” (Renovis, Inc., priority 2006, published 2011)

What follows are molecules tested against T1, P2X7 receptor (Homo sapiens, UniProt Q99572) (assay: IL-1β release assay in differentiated THP-1 cells stimulated with BzATP (Example 9)). Conditions: 0.1 μM compound (symbols *); differentiated THP-1 cells, BzATP 250 uM; read-out: IL-1β % Inhib. @ 0.3 or 0.1 uM.
T1 construct: host or cells: THP-1 cells differentiated with LPS and IFN-γ
T1 sequence (Q99572 1-595): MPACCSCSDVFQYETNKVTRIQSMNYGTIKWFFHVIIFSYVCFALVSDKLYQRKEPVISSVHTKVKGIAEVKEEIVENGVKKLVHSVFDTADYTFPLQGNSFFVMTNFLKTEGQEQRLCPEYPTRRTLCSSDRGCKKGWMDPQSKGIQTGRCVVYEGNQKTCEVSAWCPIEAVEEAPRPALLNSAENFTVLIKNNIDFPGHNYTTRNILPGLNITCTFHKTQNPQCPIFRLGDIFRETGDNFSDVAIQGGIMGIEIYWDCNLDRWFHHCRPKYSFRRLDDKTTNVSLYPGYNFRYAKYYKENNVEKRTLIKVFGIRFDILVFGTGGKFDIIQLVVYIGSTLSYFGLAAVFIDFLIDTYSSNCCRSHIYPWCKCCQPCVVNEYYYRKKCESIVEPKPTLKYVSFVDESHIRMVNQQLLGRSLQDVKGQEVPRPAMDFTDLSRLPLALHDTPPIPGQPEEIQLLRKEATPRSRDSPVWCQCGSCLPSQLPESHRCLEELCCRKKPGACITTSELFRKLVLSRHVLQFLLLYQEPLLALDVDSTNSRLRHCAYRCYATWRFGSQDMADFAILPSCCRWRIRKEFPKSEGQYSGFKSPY
Assay type: cell-based
Method in brief: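 IC50 derived by four-parameter logistic fit of percent inhibition of IL-1β release (ELISA, background-adjusted). Release triggered by 45 min BzATP at 250 uM final after 30 min compound pretreatment of THP-1 cells previously differentiated 16 h (LPS, IFN-γ, 100 ng/mL each) and re-primed 2 h with LPS.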

First: CC(O)Cn1ccc2c(NC(=O)Cc3ccc4c(c3)OCO4)cccc2c1=O (centres unmarked) [Compound 165]
Second: CC(O)Cn1ccc2c(NC(=O)c3cccc4c3OCCO4)cccc2c1=O (centres unmarked) [Compound 170]
The inhibition at 0.1 µM of the first is lower: 0 to 25% for the first, 26 to 50% for the second.

`Cc1ccc(C)c(C(=O)Nc2cccc3c(=O)n(C(C)CO)ccc23)c1` (centres unmarked) [Compound 100] and `Cc1ccc(C(=O)Nc2cccc3c(=O)n(C(C)CO)ccc23)cc1Cl` (centres unmarked) [Compound 115] fall in the same range of inhibition at 0.1 µM: 0 to 25% for the first, 0 to 25% for the second.

`COc1ccc(C(=O)Nc2cccc3c(=O)n(CC(C)O)ccc23)c(C)c1` (centres unmarked) [Compound 125] and `Cc1cc(Cl)ccc1C(=O)Nc1cccc2c(=O)n(CC(C)O)ccc12` (centres unmarked) [Compound 169] fall in the same range of inhibition at 0.1 µM: 0 to 25% for the first, 0 to 25% for the second.

Work on `Cc1c(Cl)cccc1C(=O)Nc1cccc2c(=O)n(C(C)CO)ccc12` (centres unmarked) [Compound 118] yielded an inhibition at 0.1 µM of 26 to 50%.

Same assay, conditions: 0.1 μM compound; differentiated THP-1 cells, BzATP 250 uM; "*" symbols; read-out: IL-1β % Inhib. @ 0.3 or 0.1 uM

Molecule `CC(C)(O)Cn1ccc2c(NC(=O)Cc3cccc4ccccc34)cccc2c1=O` [Compound 205] has an inhibition at 0.1 µM of 0 to 25%.

Same assay, conditions: 0.3 μM compound (symbols +); differentiated THP-1 cells, BzATP 250 uM; read-out: IL-1β % Inhib. @ 0.3 or 0.1 uM

`O=C(Nc1cccc2c(=O)n(CC3(O)CCCCC3)ccc12)c1cc2ccccc2o1` [Compound 37] and `O=C(Nc1cccc2c(=O)n(CC3(O)CCCCC3)ccc12)c1ccc2ccccc2c1` [Compound 27] fall in the same range of inhibition at 0.3 µM: 0 to 25% for the first, 0 to 25% for the second.

First: O=C(Cc1ccc(F)cc1)Nc1cccc2c(=O)n(CCO)ccc12 [Compound 73]
Second: CCC(C(=O)Nc1cccc2c(=O)n(CCO)ccc12)c1ccccc1 (centres unmarked) [Compound 74]
The inhibition at 0.3 µM of the first is higher: 26 to 50% for the first, 0 to 25% for the second.

Molecule `O=C(CCc1cccc(Cl)c1)Nc1cccc2c(=O)n(CC3(O)CCCCC3)ccc12` [Compound 58] has an inhibition at 0.3 µM of 26 to 50%.

Same assay, conditions: 0.3 μM compound; differentiated THP-1 cells, BzATP 250 uM; "+" symbols; read-out: IL-1β % Inhib. @ 0.3 or 0.1 uM

`CC(C)[C@H](CO)n1ccc2c(NC(=O)[C@H](C)c3ccc(Cl)cc3)cccc2c1=O` [Compound 273, (R)-2-(4-Chloro-phenyl)-N—[(R)-2-(1-hydroxymethyl-2-methyl-propyl)-1-oxo-1,2-dihydro-isoquinolin-5-yl]-propionamide] and `CNC(=O)[C@@H](C(C)C)n1ccc2c(NC(=O)[C@H](C)c3ccc(Cl)cc3)cccc2c1=O` [Compound 277] cannot be ordered by inhibition at 0.3 µM: greater than 76% for the first, greater than 76% for the second.

`NCC(CCl)Cn1ccc2c(NC(=O)Cc3ccc(Cl)c(Cl)c3)cccc2c1=O` (centres unmarked) [Compound 259] and `CNCCn1ccc2c(NC(=O)Cc3ccc(Cl)c(Cl)c3)cccc2c1=O` [Compound 234] fall in the same range of inhibition at 0.3 µM: 51 to 75% for the first, 51 to 75% for the second.

First: CC(C(=O)Nc1cccc2c(=O)n(C[C@@H]3CCCN3)ccc12)c1ccc(Cl)cc1 (some centres unmarked) [Compound 246]
Second: C[C@H](C(=O)Nc1cccc2c(=O)n([C@H](C)C(=O)O)ccc12)c1ccc(Cl)cc1 [Compound 322, (R)-2-{5-[(S)-2-(4-Chloro-phenyl)-propionylamino]-1-oxo-1H-isoquinolin-2-yl}-propionic acid]
The inhibition at 0.3 µM of the first is higher: 51 to 75% for the first, 26 to 50% for the second.

First: C[C@@H](CO)n1ccc2c(NC(=O)Cc3ccc(F)c(Cl)c3)cccc2c1=O [Compound 331]
Second: C[C@@H](CO)n1ccc2c(NC(=O)Cc3ccc(Cl)c(Cl)c3)cccc2c1=O [Compound 332]
The inhibition at 0.3 µM of the first is lower: 51 to 75% for the first, greater than 76% for the second.

First: CC(C(=O)Nc1cccc2c(=O)n([C@@H](C)C(N)=O)ccc12)c1ccc(Cl)c(C(F)(F)F)c1 (some centres unmarked) [Compound 356]
Second: CC(C(=O)Nc1cccc2c(=O)n([C@H](CO)C(N)=O)ccc12)c1ccc(Cl)cc1 (stereo partly drawn) [Compound 252, (R)-2-{5-[2-(4-Chloro-phenyl)-propionylamino]-1-oxo-1H-isoquinolin-2-yl}-3-hydroxy-propionamide]
The inhibition at 0.3 µM of the first is higher: greater than 76% for the first, 51 to 75% for the second.

First: C[C@H](C(N)=O)n1ccc2c(NC(=O)Cc3ccc(Cl)cc3F)c(Cl)ccc2c1=O [Compound 343]
Second: C[C@H](C(N)=O)n1ccc2c(NC(=O)Cc3ccccc3Cl)cccc2c1=O [Compound 260]
The inhibition at 0.3 µM of the first is higher: 26 to 50% for the first, 0 to 25% for the second.

Same assay, conditions: THP-1, read-out: IL-1β % Inhib. @ 0.3 or 0.1 uM

`C[C@@H](C(N)=O)n1ccc2c(NC(=O)Cc3ccc(C(F)(F)F)cc3)c(Cl)ccc2c1=O` [Compound 345, (S)-2-{6-Chloro-1-oxo-5-[2-(4-trifluoromethyl-phenyl)-acetylamino]-1H-isoquinolin-2-yl}-propionamide] showed an inhibition at 0.3 µM greater than 76%.
